Measured values published in paper PMC2212116 (The Journal of Experimental Medicine, 1998).

Test system: mouse and human MHC class II molecules
Assay: Competitive assay for MHC class II binding, alleles taken together
Settings: competition with known conventional peptide antigens that bind to the class II groove

## H2B10–33: epitope for other pathogenic Th cells of lupus, localized in histone H2B10–33
  binding to class II alleles (in words): did not show promiscuous binding
